This is an account of results in patent US20200016200A1, “MODULATING CYTOTOXIC CELL LYTIC GRANULE POSITIONING TO PROMOTE DIFFUSE KILLING IN CELLULAR THERAPIES” (Baylor College of Medicine, priority 2016, published 2020).

The test system of data set [1] is eNK cells. Put plainly: Lytic granule convergence, fixed cell confocal microscopy (granule to MTOC distance). It is filed as cell-based, human. The settings on record: eNK conjugated with K562 target cells; ciliobrevin D 100 μM vs vehicle. An excerpt:
(§1) In previous studies, it was shown that granule convergence is dynein-dependent (Mentlik et al., 2010). To further characterize this, regarding the role for convergence in promoting killing efficiency and protecting bystanders, a small molecule dynein inhibitor ciliobrevin D (Firestone et al., 2012) was used to try and block the convergence of lytic granules to the MTOC from their dispersed localization in the cytoplasm. This would allow us to manipulate granule trafficking via blocking the motor protein function, instead of altering activating signal input. YTS, NK92 or eNK cells were treated with either ciliobrevin D or vehicle and conjugated with their respective target cells. […] As a separate measure of granule dispersion, the standard deviation of the granule to MTOC distance was calculated to show the degree of scatter of individual lytic granules. […] CD107a staining was additionally performed to test whether ciliobrevin D treatment affected the exocytosis of lytic granules; the proportion of eNK cells that degranulated after treatment with ciliobrevin D increased (FIG. 13A), whereas in the NK cell lines it decreased (FIG. 13B-13C). In all cases, however, degranulation still occurred in the presence of ciliobrevin D. […]
(§2) Raw image sequences were analyzed using Volocity software. For lytic granules, the centroid of individual lytic granule was designated automatically based on the fluorescence intensity of the corresponding staining (LysoTracker Red or perforin) (Mentlik et al., 2010). For MTOC, in fixed-cell confocal experiments, the point with the highest fluorescence intensity of α-tubulin staining was denoted as the localization of MTOC; in live-cell experiments, the geometric centroid of all the lytic granules in the cell was used to provide a measure of proximity of lytic granule regions. Lytic granule convergence to the MTOC or to the centroid of all granules was measured as previously described (Mentlik et al., 2010). […]

In data set [2] the test system is NK92 cells. The data set is described as above. It is filed as cell-based, human. The settings on record: NK92 conjugated with K562 target cells; ciliobrevin D 100 μM vs vehicle.
Source text: as §1, §2

Data set [3] deals with CD19 CAR T cell. Put plainly: Live cell confocal microscopy of CD19 CAR T cell conjugated with a Daoy-CD19 target cell. It is filed as cell-based. As for the experimental part:
FIG. 25. […] Live cell confocal microscopy of a ciliobrevin D-treated CD19 CAR T cell conjugated with a Daoy-CD19 target cell. Cell mixtures were imaged every 90 sec for 60 min. Time point 1 (T1) represents the time when imaging started. Target cell death occurred rapidly at T5 (7.5 min) as indicated by uptake of SYTOX Blue viability dye and loss of adherence. […] Red, LysoTracker Red (lytic granules); blue, SYTOX Blue viability dye; green, CD19 CAR.
Similarly, compared to DMSO, ciliobrevin D-treated CD19 CAR NK cells lyse approximately 24%, 39% and 40% more bystander cells at the concentration of 12.5, 25 and 50 μM, respectively (FIG. 22). […] FIG. 23 and FIG. 24 are time-lapse images of videos of control ([…]) and ciliobrevin D-treated ([…]) CD19 CAR T cells. […] In the control group, however, lytic granules converge immediately upon interacting with the target cell and remain tightly clustered until target is killed by the CD19 CAR T cell as indicated by uptake of the SYTOX Blue viability dye.

In data set [4] the test system is YTS cells. Put plainly: Flow cytometry-based cytotoxicity / bystander killing assay. It is filed as cell-based, human. As for the experimental part:
(§3) Because directed degranulation with converged granules promoted killing efficiency, ciliobrevin D was used to physically prevent convergence in a cell that had received a convergence signal. It was considered that this would allow us to abrogate the killing efficiency benefit imparted by lytic granule convergence. In order to measure killing of both the target and bystander cells in a single experiment, flow cytometry-based cytotoxicity assays were performed, wherein each cell line was labeled with a unique fluorescent dye in the presence of media containing SYTOX Blue viability indicator dye. […] The viability of YTS ([…]), NK92 (FIG. 14E, 14H) and eNK (FIG. 14F, 14I) was not affected by DMSO or ciliobrevin D treatments. […] To ask if it promoted more collateral damage by NK cells 51Cr-labeled Raji cells were added (to serve as innocent bystanders) along with unlabeled 721.221 or K562 target cells. […] YTS or NK92 cells co-cultured with 51Cr-labeled Raji cells in the absence of 721.221 or K562 were unable to kill Raji cells (FIG. 14J). […] Convergence therefore serves to protect innocent bystander cells in complex cellular environments.
(§4) YTS-CD16, NK92-CD16 and eNK cells were labeled with CellTrace CFSE for 10 min at room temperature, washed, and treated with ciliobrevin D or DMSO control as described below in inhibitors. 721.221 and K562 cells were labeled with cell proliferation dye eFluor 670 for 5 min at room temperature. Raji cells were labeled with PKH-26 according to manufacture's protocol. NK cells were then mixed with the corresponding targets and Raji cells at a final volume of 200 μl complete R10 and incubated at 37° C. for 2 hr. Cells were then labeled with SYTOX Blue viability dye for 5 min at room temperature, washed, and run on LSRFortessa flow cytometer (BD).
(§5) Where applicable, YTS, NK92 and eNK cells were pretreated with […] ciliobrevin D (Millipore) for 30 min then washed. DMSO was used as the vehicle control for all inhibitor experiments. The inhibitor was also added into the co-culture with target cells.
(In general: A flow cytometer gives signals particle by particle.)

In data set [5] the test system is eNK cells. The data set is described as above. It is filed as cell-based, human. The procedure:
as §3, §4, §5

Data set [6] relates to NK92 cells. The data set is described as above. The class given is cell-based, human. The procedure:
as §3, §4, §5

“Also recorded” adds a separate entry of the source.

Regarding `N#CC(C(=O)c1ccc(Cl)cc1Cl)=C1NC(=O)c2ccc(Cl)cc2N1` [ciliobrevin D, 2-(7-chloro-4-oxo-3,4-dihydroquinazolin-2(1H)-ylidene)-3-(2,4-dichlorophenyl)-3-oxopropanenitrile], the “lytic granule convergence as determined by mean granule to MTOC distance” value in data set [1] and in data set [2] was “blocked lytic granule convergence” each time. Besides, in data set [3] (ciliobrevin D-treated CD19 CAR T cell, Daoy-CD19 target), the “time of target cell death (SYTOX Blue uptake, loss of adherence)” value is 7.5 min. Besides, the “lytic granule positioning during conjugation and killing” value in data set [3] (ciliobrevin D-treated, imaged every 90 sec for 60 min) is “dispersedly localized lytic granules throughout the video; also recorded: remained dispersed throughout the video”. The “specific lysis of susceptible target cells” value is “no change in killing; also recorded: not affected” in data set [4] (YTS against 721.221, Raji bystander cells added, vs DMSO); “no change in killing; also recorded: not affected” in data set [5] (eNK against K562, Raji bystander cells added, vs DMSO); “no change in killing; also recorded: not affected” in data set [6] (NK92 against K562, Raji bystander cells added, vs DMSO). Besides, the “killing of susceptible target cells” value in data set [4] (YTS against 721.221, absence of Raji bystander cells, vs DMSO) is recorded as “did not affect killing; also recorded: not affected”; in data set [5] (eNK against K562, absence of Raji bystander cells, vs DMSO) it was “did not affect killing; also recorded: not affected”; in data set [6] (NK92 against K562, absence of Raji bystander cells, vs DMSO), “did not affect killing; also recorded: not affected”. Besides, the “non-specific lysis (bystander killing) of Raji cells” value in data set [4] (YTS with 721.221 inciting targets, vs DMSO) is reported as “killing of the bystander Raji cells in a dose-dependent manner; also recorded: increased”; in data set [5] (eNK with K562 inciting targets, vs DMSO), “killing of the bystander Raji cells in a dose-dependent manner; also recorded: increased”; in data set [6] (NK92 with K562 inciting targets, vs DMSO) it was “killing of the bystander Raji cells in a dose-dependent manner; also recorded: increased”. In addition, the “viability of NK cells” value in data set [4] (YTS, standard cytotoxicity and bystander killing assays) was “not affected; also recorded: not different”; in data set [5] (eNK, standard cytotoxicity and bystander killing assays), “not affected; also recorded: not different”; in data set [6] (NK92, standard cytotoxicity and bystander killing assays), “not affected; also recorded: not different”.
